Here are results for three compounds from paper PMC3404088, “Development of a Small D-Enantiomeric Alzheimer’s Amyloid-β Binding Peptide Ligand for Future In Vivo Imaging Applications” (PLoS ONE, 2012).

SMILES strings stand for the structures. Square brackets hold non-standard residues; d marks the D form. Peptide text beside a SMILES is read from it. * marks the point of attachment. 5FAM = O=C1OC2(c3ccc(O)cc3Oc3cc(O)ccc32)c2ccc(C(=O)*)cc21

For this assay, the target named is T1, Aβ1–42 monomers (Homo sapiens, UniProt P05067).
T1 construct: Aβ1–42 peptide film was prepared from lyophilized powder (Bachem); purchased Bachem
T1 sequence (P05067 672-713 limits assumed): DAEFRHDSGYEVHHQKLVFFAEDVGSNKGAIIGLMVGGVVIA
Put plainly: ELISA, compound binding to Aβ1–42 peptide film (predominantly monomers). As to conditions: 10 µg/ml compound; optical density after pNPP incubation; value of one single experiment only. On the procedure:
Aβ1–42 peptide film was prepared from lyophilized powder (Bachem). The powder was reconstituted in HFIP to a final concentration of 1 mM, sonicated for 15 min at room temperature (RT), agitated overnight (ON), and aliquoted into non-siliconized microcentrifuge tubes (12 µl corresponding to 55 µg). The HFIP was evaporated under a stream of argon. The resulting peptide film was vacuum dried for 10 min and stored at -80°C. For direct use as peptide film, an aliquot of Aβ1–42 peptide film was reconstituted with 0.54% dimethylsulphoxide (DMSO) in phosphate buffered saline (PBS) to obtain a final concentration of 10 µg/ml and then used for the ELISA as described below. To prepare fibrils, 55 µg aliquot of peptide film was dissolved in 55 µl of 50 mM Tris-HCl, pH 7.4 and incubated at 37°C for five days. Next, the sample was centrifuged (10’000 rpm for 5 min) and the pellet was diluted in 50 mM Tris-HCl, pH 7.4.
Aβ1–42 peptide preparations were diluted in 0.05 M bicarbonate-carbonate buffer pH 9.6, to the final concentration of 10 µg/ml and coated onto ELISA plates (MaxiSorp, Nunc). After blocking (PBS; 0.05% Tween; 1% BSA), plates were incubated with 2- or 3-fold dilutions of D-compounds (starting concentration: 10 µg/ml) and incubated for 2 h at 37°C. Plates were then washed and incubated for 2 h at 37°C with the detection antibody Rabbit-a-fluorescein isothiocyanate-AP (Sigma; 1∶10’000 dilution) followed by the incubation for 2.5 h at room temperature (RT) with 1 mg/ml of phosphatase substrate (pNPP, Sigma). The absorbance signal was read at 405 nm wavelength using a Tecan plate reader (Tecan Group Lt, Männedorf, Switzerland).
ELISA plates (MaxiSorp, Nunc) were coated with anti-Aβ antibody 6E10 (Covance) at a concentration of 5 µg/ml. Either monomeric Aβ1–42 peptide film (mainly monomeric) or Aβ1–42 fibrils, which were prepared as described above, were diluted in PBS to the final concentration 10 µg/ml and mixed with 10-fold dilutions of D-peptide compounds in Eppendorf tubes (starting concentration of D-peptide compounds: 10 µg/ml). The tubes were incubated for 2 h at 37°C. Next, samples were distributed onto the ELISA plate and kept for 2 h at 37°C. Plates were washed and incubated for 2 h at 37°C with the detection antibody Rabbit-a-fluorescein isothiocyanate-AP (Sigma; 1∶10′000 dilution) following the incubation overnight (ON) at RT with 1 mg/ml of phosphatase substrate (pNPP, Sigma). The absorbance signal was read at 405 nm wavelength using the Tecan plate reader (Tecan Group Ltd, Männedorf, Switzerland).
To verify the SPR results, ELISA was employed to assay the interaction of the ACI-80 derivatives ACI-80-Kϕ, ACI-81-Kϕ, ACI-82-Kϕ, ACI-83-Kϕ, ACI-84-Kϕ, ACI-85-Kϕ, ACI-86-Kϕ, ACI-87-Kϕ, [^19F]-ACI-87-Kϕ, ACI-88-Kϕ, [^19F]-ACI-88-Kϕ, ACI-89-Kϕ, [^19F]-ACI-89-Kϕ) with Aβ1–42 fibrils and Aβ peptide film in solution containing mostly monomers and smaller oligomers (Table 4). To avoid any bias by possible conformational influences the ELISA has been carried out in two versions, once with immobilized antibody and once with immobilized Aβ1–42 as described in the methods section. Both assays yielded similar results and confirmed each other. […] Panels A and B in Figure 2 show the results for binding to Aβ1–42 fibrils and panels C and D in Figure 2 show the results for binding to freshly prepared Aβ1–42 peptide film, which contains mostly monomeric Aβ. In Table 4, the performance of the peptides is expressed relative to that of ACI-80-Kϕ.
In general terms: In an ELISA, binding on a coated surface is turned into a signal by an enzyme label.
For `CC[C@@H](C)[C@@H](NC(=O)[C@@H](Cc1c[nH]cn1)NC(=O)[C@@H](CCCNC(=N)N)NC(=O)[C@@H](Cc1ccc(O)cc1)NC(=O)[C@@H](Cc1c[nH]cn1)NC(=O)[C@@H](CO)NC(=O)[C@H](N)CCC(N)=O)C(=O)N[C@H](CO)C(=O)N1CCC[C@@H]1C(=O)N[C@H](C)C(=O)N[C@H](CCC(N)=O)C(=O)N[C@H](CCCCN)C(=O)N[C@H](CCCCNC(=O)c1ccc2c(c1)C(=O)OC21c2ccc(O)cc2Oc2cc(O)ccc21)C(=O)O` [ACI-87-Kϕ] (H-[dQ][dS][dH][dY][dR][dH][dI][dS][dP][dA][dQ][dK][dK](5FAM)-OH; N-terminus and C-terminus assumed), the “binding value, binding Aβ1–42 monomers” value is “*0.79”.
Turning to `CC[C@@H](C)[C@@H](NC(=O)[C@@H](Cc1c[nH]cn1)NC(=O)[C@@H](CCCNC(=N)N)NC(=O)[C@@H](Cc1ccc(O)cc1)NC(=O)[C@@H](Cc1c[nH]cn1)NC(=O)[C@H](N)CO)C(=O)N[C@H](CO)C(=O)N1CCC[C@@H]1C(=O)N[C@H](C)C(=O)N[C@H](CCC(N)=O)C(=O)N[C@H](CCCCN)C(=O)N[C@H](CCCCNC(=O)c1ccc2c(c1)C(=O)OC21c2ccc(O)cc2Oc2cc(O)ccc21)C(=O)O` [ACI-88-Kϕ] (H-[dS][dH][dY][dR][dH][dI][dS][dP][dA][dQ][dK][dK](5FAM)-OH; N-terminus and C-terminus assumed), the “binding value, binding Aβ1–42 monomers” value is “*1.29”.
The same measure for `CC[C@@H](C)[C@@H](NC(=O)[C@@H](Cc1c[nH]cn1)NC(=O)[C@@H](CCCNC(=N)N)NC(=O)[C@@H](Cc1ccc(O)cc1)NC(=O)[C@@H](Cc1c[nH]cn1)NC(=O)[C@@H](CO)NC(=O)[C@H]1CCCN1)C(=O)N[C@H](CO)C(=O)N1CCC[C@@H]1C(=O)N[C@H](C)C(=O)N[C@H](CCC(N)=O)C(=O)N[C@H](CCCCN)C(=O)N[C@H](CCCCNC(=O)c1ccc2c(c1)C(=O)OC21c2ccc(O)cc2Oc2cc(O)ccc21)C(=O)O` [ACI-89-Kϕ] (H-[dP][dS][dH][dY][dR][dH][dI][dS][dP][dA][dQ][dK][dK](5FAM)-OH; N-terminus and C-terminus assumed): “*1.06”.
